# Laboratory results taken from patent publication US9718790B2, “Triazine derivative and pharmaceutical composition having an analgesic activity comprising the same” (SHIONOGI & CO., LTD., priority 2010, dated 2017).
# Molecular target: human P2X3 receptor (Homo sapiens (Human), UniProt P56373)
# Assay: Evaluation of human P2X3 receptor inhibitory activity (Fluo-3 calcium fluorescence, FDSS 3000, ATP stimulation);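 note: stimulus was 50 nM ATP with fluorescence followed for 3 min, and the response per well was peak post-ATP fluorescence divided by the reading at measurement start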
# Format: cell-based
# Conditions: C6BU-1 cells stably expressing human P2X3 receptor, Fluo-3 fluorescence, FDSS 3000
# Chain of human P2X3 receptor (P56373 whole entry): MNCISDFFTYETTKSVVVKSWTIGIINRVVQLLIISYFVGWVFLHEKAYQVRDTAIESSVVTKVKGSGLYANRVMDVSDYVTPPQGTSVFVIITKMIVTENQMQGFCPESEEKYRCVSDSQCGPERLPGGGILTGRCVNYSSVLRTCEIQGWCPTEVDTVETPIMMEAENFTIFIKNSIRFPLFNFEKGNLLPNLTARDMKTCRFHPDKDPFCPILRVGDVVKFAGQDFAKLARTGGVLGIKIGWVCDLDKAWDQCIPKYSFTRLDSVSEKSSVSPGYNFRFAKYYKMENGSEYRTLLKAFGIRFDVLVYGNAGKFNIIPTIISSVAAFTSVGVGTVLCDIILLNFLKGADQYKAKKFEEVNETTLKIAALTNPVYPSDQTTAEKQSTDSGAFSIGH
row,Compound,IC50 [nM]
1,COc1ccc(Oc2ccc(/N=c3\[nH]c(=O)n(C[C@H](O)CO)c(=O)n3Cc3ccc(Cl)cc3)cc2)cn1 [Compound I-1734],5
2,CNC(=O)c1cc(Oc2ccc(/N=c3\[nH]c(=O)n(CCO)c(=O)n3Cc3ccc(Cl)cc3)cc2)ccn1 [Compound I-1735],3
3,Cn1c(=O)[nH]/c(=N\c2ccc(Oc3ccnc(O)c3)cc2)n(Cc2ccc(Cl)cc2)c1=O [Compound I-1736],9
4,Cc1nc2ccc(/N=c3\[nH]c(=O)n(C)c(=O)n3Cc3ccc(Cl)cc3)cc2s1 [Compound I-1737],19
5,CCc1nc2ccc(/N=c3\[nH]c(=O)n(CCC(=O)NC)c(=O)n3Cc3ccc(Cl)cc3)cc2s1 [Compound I-1738],5
6,CCc1nc2ccc(/N=c3\[nH]c(=O)n(CCC(=O)NCCO)c(=O)n3Cc3ccc(Cl)cc3)cc2s1 [Compound I-1739],7
7,CCOC(=O)CN1CC(n2c(=O)[nH]/c(=N\c3ccc(OC(C)C)c(C)c3)n(Cc3ccc(Cl)cc3)c2=O)C1 [Compound I-1741],55
8,Cc1cc(/N=c2\[nH]c(=O)n(C3CN(CC(=O)O)C3)c(=O)n2Cc2ccc(Cl)cc2)ccc1OC(C)C [Compound I-1742],135
9,C[C@@H](C(=O)O)[C@H](C)n1c(=O)[nH]/c(=N\c2ccc3[nH]ncc3c2)n(Cc2ccc(Cl)cc2)c1=O [Compound I-1743],861
10,CC(C)n1ncc2cc(/N=c3\[nH]c(=O)n([C@@H](C)[C@@H](C)C(=O)O)c(=O)n3Cc3ccc(Cl)cc3)ccc21 [Compound I-1744],242
11,COc1noc2cc(/N=c3\[nH]c(=O)n([C@@H](C)[C@@H](C)C(=O)O)c(=O)n3Cc3ccc(Cl)cc3)ccc12 [Compound I-1746],129
12,C[C@@H](C(=O)O)[C@H](C)n1c(=O)[nH]/c(=N\c2ccc3oc4c(c3c2)CCCCC4)n(Cc2ccc(Cl)cc2)c1=O [Compound I-1747],201
13,C[C@@H](C(=O)O)[C@H](C)n1c(=O)[nH]/c(=N\c2ccc3oc4c(c3c2)CCCC4)n(Cc2ccc(Cl)cc2)c1=O [Compound I-1748],236
14,CC1CCC(Cn2c(=O)n(CCC(=O)O)c(=O)[nH]/c2=N\c2ccc(OC(C)C)c(F)c2)CC1 (centres unmarked) [Compound I-1750],21
15,CCc1nc2ccc(/N=c3\[nH]c(=O)n(CC(=O)OC)c(=O)n3Cc3ccc(Cl)cc3)cc2s1 [Compound I-1752],4
16,COC(=O)Cn1c(=O)[nH]/c(=N\c2ccc(Oc3ccc(OC)nc3)cc2)n(Cc2ccc(Cl)cc2)c1=O [Compound I-1753],9
17,COC(=O)Cn1c(=O)[nH]/c(=N\c2ccc(Oc3ccnc(C)c3)cc2)n(Cc2ccc(Cl)cc2)c1=O [Compound I-1754],5
18,Cc1cc(Oc2ccc(/N=c3\[nH]c(=O)n(CCO)c(=O)n3Cc3ccc(Cl)cc3)cc2)no1 [Compound I-1756],30
19,COC(=O)CCn1c(=O)[nH]/c(=N\C2CCC(C)CC2)n(Cc2ccc(C)cc2)c1=O (centres unmarked) [Compound I-1759],408
20,COc1ccc(COc2cc(Cn3c(=O)[nH]/c(=N\c4ccc(OC(C)C)c(F)c4)n(Cc4ccc(Cl)cc4)c3=O)on2)cc1 [Compound I-1764],35
21,CCc1cc2cc(/N=c3\[nH]c(=O)n(C[C@H](C)C(=O)OC)c(=O)n3Cc3ccc(Cl)cc3)ccc2o1 [Compound I-1765],9

row,Compound,IC50 [nM]
1,CCc1cc2cc(/N=c3\[nH]c(=O)n(C[C@H](C)C(=O)O)c(=O)n3Cc3ccc(Cl)cc3)ccc2o1 [Compound I-1766],18
2,CC(C)Oc1ccc(/N=c2\[nH]c(=O)n(Cc3cc(O)no3)c(=O)n2Cc2ccc(Cl)cc2)cc1F [Compound I-1767],55
3,CCc1nc2ccc(/N=c3\[nH]c(=O)n(CCC(N)=O)c(=O)n3Cc3ccc(Cl)cc3)cc2s1 [Compound I-1768],6
4,CCc1nc2ccc(/N=c3\[nH]c(=O)n(CCC#N)c(=O)n3Cc3ccc(Cl)cc3)cc2s1 [Compound I-1769],3
5,CC(C)n1c2c(c3cc(/N=c4\[nH]c(=O)n([C@@H](C)[C@@H](C)C(=O)O)c(=O)n4Cc4ccc(Cl)cc4)ccc31)CCCC2 [Compound I-1770],788
6,Cc1[nH]c2ccc(/N=c3\[nH]c(=O)n([C@@H](C)[C@@H](C)C(=O)O)c(=O)n3Cc3ccc(Cl)cc3)cc2c1C [Compound I-1771],14
7,CC(C)n1cnc2cc(/N=c3\[nH]c(=O)n([C@@H](C)[C@@H](C)C(=O)O)c(=O)n3Cc3ccc(Cl)cc3)ccc21 [Compound I-1772],297
8,COc1ccc2cc(/N=c3\[nH]c(=O)n([C@@H](C)[C@@H](C)C(=O)O)c(=O)n3Cc3ccc(Cl)cc3)ccc2c1 [Compound I-1773],29
9,C[C@@H](C(=O)O)[C@H](C)n1c(=O)[nH]/c(=N\c2ccc3c(c2)CCN3S(C)(=O)=O)n(Cc2ccc(Cl)cc2)c1=O [Compound I-1774],255
10,C[C@@H](C(=O)O)[C@H](C)n1c(=O)[nH]/c(=N\c2ccc3c(c2)CC/C3=N\O)n(Cc2ccc(Cl)cc2)c1=O [Compound I-1777],636
11,CC(C)N1C(=O)Cc2cc(/N=c3\[nH]c(=O)n([C@@H](C)[C@@H](C)C(=O)O)c(=O)n3Cc3ccc(Cl)cc3)ccc21 [Compound I-1779],203
12,C[C@@H](C(=O)O)[C@H](C)n1c(=O)[nH]/c(=N\c2ccc3c(c2)sc(=O)n3CC(F)(F)F)n(Cc2ccc(Cl)cc2)c1=O [Compound I-1780],932
13,C[C@@H](C(=O)O)[C@H](C)n1c(=O)[nH]/c(=N\c2ccc3[nH]ccc3c2)n(Cc2ccc(Cl)cc2)c1=O [Compound I-1781],518
14,C[C@@H](C(=O)O)[C@H](C)n1c(=O)[nH]/c(=N\c2ccc3c(c2)OC(F)(F)C(F)(F)O3)n(Cc2ccc(Cl)cc2)c1=O [Compound I-1783],170
15,C[C@@H](C(=O)O)[C@H](C)n1c(=O)[nH]/c(=N\c2ccc3c(c2)CCCC3=O)n(Cc2ccc(Cl)cc2)c1=O [Compound I-1784],950
16,C[C@@H](C(=O)O)[C@H](C)n1c(=O)[nH]/c(=N\c2ccc3c(c2)OCC(=O)N3)n(Cc2ccc(Cl)cc2)c1=O [Compound I-1786],621
17,O=c1[nH]/c(=N\c2ccc(Oc3ccc(O)nc3)cc2)n(Cc2ccc(Cl)cc2)c(=O)n1CCO [Compound I-1789],30
18,CCCc1nc2ccc(/N=c3\[nH]c(=O)n([C@@H](C)[C@@H](C)C(=O)O)c(=O)n3Cc3ccc(Cl)cc3)cc2s1 [Compound I-1792],20
19,CC(=O)Nc1nc2ccc(/N=c3\[nH]c(=O)n([C@@H](C)[C@@H](C)C(=O)O)c(=O)n3Cc3ccc(Cl)cc3)cc2s1 [Compound I-1793],984
20,C[C@@H](C(=O)O)[C@H](C)n1c(=O)[nH]/c(=N\c2ccc3nc(C(F)(F)F)[nH]c3c2)n(Cc2ccc(Cl)cc2)c1=O [Compound I-1794],380
21,COC(=O)[C@H](C)[C@H](C)n1c(=O)[nH]/c(=N\c2ccc3nc(C)[nH]c3c2)n(Cc2ccc(Cl)cc2)c1=O [Compound I-1795],795

row,Compound,IC50 [nM]
1,C[C@@H](C(=O)O)[C@H](C)n1c(=O)[nH]/c(=N\c2ccc3c(c2)CCCC3)n(Cc2ccc(Cl)cc2)c1=O [Compound I-1796],587
2,O=C(O)c1cc(Oc2ccc(/N=c3\[nH]c(=O)n(CCO)c(=O)n3Cc3ccc(Cl)cc3)cc2)ccn1 [Compound I-1797],6
3,CCc1nc2ccc(/N=c3\[nH]c(=O)n(CC(=O)O)c(=O)n3Cc3ccc(Cl)cc3)cc2s1 [Compound I-1798],150
4,COc1ccc(Oc2ccc(/N=c3\[nH]c(=O)n(CC(=O)O)c(=O)n3Cc3ccc(Cl)cc3)cc2)cn1 [Compound I-1799],382
5,Cc1cc(Oc2ccc(/N=c3\[nH]c(=O)n(CC(=O)O)c(=O)n3Cc3ccc(Cl)cc3)cc2)ccn1 [Compound I-1800],510
6,COC(=O)CCn1c(=O)[nH]/c(=N\Nc2ccc(OC)cc2)n(Cc2ccc(C)cc2)c1=O [Compound I-1801],687
7,COC(=O)CCn1c(=O)[nH]/c(=N\c2cn(C)nc2C(=O)NC(C)C)n(Cc2ccc(C)cc2)c1=O [Compound I-1804],162
8,CCc1nc2ccc(/N=c3\[nH]c(=O)n(CC(N)=O)c(=O)n3Cc3ccc(Cl)cc3)cc2s1 [Compound I-1805],5
9,CCc1nc2ccc(/N=c3\[nH]c(=O)n(CC(=O)NC)c(=O)n3Cc3ccc(Cl)cc3)cc2s1 [Compound I-1807],6
10,CCc1nc2ccc(/N=c3\[nH]c(=O)n(CC(=O)NCCO)c(=O)n3Cc3ccc(Cl)cc3)cc2s1 [Compound I-1808],4
11,CC(C)Oc1ccc(/N=c2\[nH]c(=O)n(CCC(=O)O)c(=O)n2CC2(C)CCCCC2)cc1F [Compound I-1809],339
12,C[C@@H](C(=O)O)[C@H](C)n1c(=O)[nH]/c(=N\c2ccc3c(c2)CCOC3)n(Cc2ccc(Cl)cc2)c1=O [Compound I-1810],682
13,C[C@@H](C(=O)O)[C@H](C)n1c(=O)[nH]/c(=N\c2ccc3c(c2)nc(-c2ccccc2)n3C)n(Cc2ccc(Cl)cc2)c1=O [Compound I-1812],630
14,C[C@@H](C(=O)O)[C@H](C)n1c(=O)[nH]/c(=N\c2ccc3oc(-c4ccccc4)nc3c2)n(Cc2ccc(Cl)cc2)c1=O [Compound I-1814],299
15,CCn1c2ccccc2c2cc(/N=c3\[nH]c(=O)n([C@@H](C)[C@@H](C)C(=O)O)c(=O)n3Cc3ccc(Cl)cc3)ccc21 [Compound I-1815],367
16,C[C@@H](C(=O)O)[C@H](C)n1c(=O)[nH]/c(=N\c2ccc3oc(-c4ccncc4)nc3c2)n(Cc2ccc(Cl)cc2)c1=O [Compound I-1816],300
17,CCCc1cc2cc(/N=c3\[nH]c(=O)n([C@@H](C)[C@@H](C)C(=O)OC)c(=O)n3Cc3ccc(Cl)cc3)ccc2o1 [Compound I-1817],52
18,C[C@@H](C(=O)O)[C@H](C)n1c(=O)[nH]/c(=N\c2ccc3[nH]c(=O)[nH]c(=O)c3c2)n(Cc2ccc(Cl)cc2)c1=O [Compound I-1818],829
19,C[C@@H](C(=O)O)[C@H](C)n1c(=O)[nH]/c(=N\c2ccc3c(c2)CCC(=O)N3)n(Cc2ccc(Cl)cc2)c1=O [Compound I-1819],873
20,C[C@@H](C(=O)O)[C@H](C)n1c(=O)[nH]/c(=N\c2ccc3c(c2)CCCO3)n(Cc2ccc(Cl)cc2)c1=O [Compound I-1820],204
